Measured values published in patent US7339059B2, “Benzofurans and indols” (Active Biotech AB, priority 2004, dated 2008).

What was measured:
[1] = target: T1, CCR1 receptor (Homo sapiens, UniProt P32246); test: In vitro Ca2+-flux assay on human monocytes (THP-1), MIP-1α stimulated; type: cell-based; details: block of MIP-1α induced Ca2+-flux in THP-1 cells; 2,5-dimethylpiperazine derivatives tested as racemic mixtures
T1 construct: host or cells: THP-1
T1 sequence (P32246 1-355): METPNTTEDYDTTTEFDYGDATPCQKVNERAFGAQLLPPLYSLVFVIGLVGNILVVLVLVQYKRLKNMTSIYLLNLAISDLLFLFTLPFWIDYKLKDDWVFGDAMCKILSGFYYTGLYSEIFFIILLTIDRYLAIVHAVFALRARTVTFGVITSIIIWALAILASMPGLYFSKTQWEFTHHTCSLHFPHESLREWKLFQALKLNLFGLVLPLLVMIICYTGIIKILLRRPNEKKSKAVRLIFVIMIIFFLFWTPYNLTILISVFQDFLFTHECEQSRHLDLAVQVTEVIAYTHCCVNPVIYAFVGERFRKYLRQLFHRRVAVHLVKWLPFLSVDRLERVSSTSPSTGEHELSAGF
Method: The binding of Mip-1α at the CCR1 receptor leads to an increase of intracellular calcium levels. The ability of the compounds of the invention to block this biologic response of the CCR1 receptor is determined in the Ca^2+-flux assay.
In Vitro Ca^2+-Flux Assay on Human Monocytes
• 1. Cell Culture: • a) THP-1 (ATCC Cat# TIB202) • b) Tissue culture medium: RPMI 1640 with Ultraglutamine 1 supplemented with 10% (v/v) foetal calf serum. This medium is hereinafter referred to as “growth medium”. • 2. Assay buffer: HBSS (Hanks' balanced salts solution), 20 mM HEPES, 1 mM CaCl2, 1 mM MgCl2, 2.5 mM Probenecid, pH 7.4. • 3. Fluo-4AM (Molecular Probes Cat # F14201) • 4. Pluronic® F-127 (Molecular Probes Cat # P-6867) • 5. The compounds of the invention were dissolved in DMSO. A serial dilution was made and nine concentrations of each compound were screened to generate a dose curve from which the IC50 value was determined. • 6. MIP-1α (Peprotech EC Ltd Cat# 300-08) • 7. Victor^2 1420 (Perkin Elmer) • 8. Microlite™^2+ (Dynex Cat # 7572) Assay Procedure:
THP-1 cells were grown in T-75 cm^2 flasks in growth medium at 37° C. in 5% CO2. The cells were harvested by centrifugation and resuspended in assay buffer. The cells were then loaded with 5 μM Fluo-4 and 0.02% pluronic acid (final concentrations) at 37° C. in 5% CO2 for 30 min. The excess dye was removed by washing with assay buffer. The cells were resuspended and 10^5 cells/well were added in a Microlite plate containing compounds and then incubated for 15 minutes at 37° C. in 5% CO2. The cells were then stimulated with MIP-1α and changes in intracellular free Ca^2+ concentration were measured with a Victor^2.
Using the procedures set forth in the competitive affinity binding assay and the Ca^2+-flux assay, various compounds of the invention were tested for their ability to block Ca^2+-flux (IC50^Ca). The results of some examples and the Compounds A, B, C, and D are shown in Table 2 where all IC50-values are given in nM (nano Molar). Table 2 exemplifies the invention without limiting the scope thereof.

[2] = In vivo bioavailability in the mouse (cassette dosing); details: female SJL/N Tac mice; for half-life / clearance: mouse, nominal dose 1 mg/kg; for half-life: plasma half-life; for clearance: plasma; for F: oral bioavailability, nominal dose 1 mg/kg iv and oral
Method: In Vivo Bioavailability in the Mouse
Female mice (SJL/N Tac) were given a single intravenous or oral dose of a mixture of 5 or 6 compounds per cassette (nominal dose: 1 mg/kg/compound) in a solution containing 0.5% N,N′-dimethylacetamide (DMA) and 15% sulfobutyl ether β-cyclodextrin (Captisol®). Blood samples were taken from one mouse per time point and dose group until 24 hour after respective administration. The dose formulations and plasma concentrations of each compound were determined by LC-MS/MS. The pharmacokinetic parameters were determined by non-compartmental analysis using WinNonlin Professional (version 4.0.1). The elimination rate constant, λ, was estimated by linear regression analysis of the terminal slope of the logarithmic plasma concentration-time curve. The area under the plasma concentration-time curve, AUC0-t, was calculated by using the linear/logarithmic trapezoidal rule. The AUCinf was calculated with the residual area estimated as Cz/λ. The calculated plasma concentration at the last time point, Cz, was obtained from the regression equation. The oral bioavailability (F) was calculated as: Foral=(AUCinf,po/AUCinf,iv)·(Doseiv/Dosepo). Pharmacodynamic Assays
The compounds of the invention show oral bioavailability in the mouse. Using the procedures set forth in the in vivo bioavailability assay, various compounds of the invention were tested for their clearance (CL; L/h/kg), plasma half-life (t1/2; hrs) as well as oral bioavailability (F; %) after administration of the nominal dose of 1 mg/kg of each compound. Table 3 exemplifies the invention, without limiting the scope thereof.

IC50 [1] | half-life [2] | clearance [2] | F [2] | SMILES
12 nM | 420 min | 15 mL/min/kg | 53% | C[C@@H]1CN(C(=O)c2cc3cc(Br)ccc3o2)[C@@H](C)CN1Cc1ccc(F)cc1 (racemic) [Compound 3.1, (trans)-1-(5-Bromo-benzofuran-2-yl-carbonyl)-4-(4-fluorobenzyl)-2,5-dimethylpiperazine]
20 nM |  |  |  | Cc1ccc2cc(C(=O)N3C[C@@H](C)N(Cc4ccc(F)cc4)C[C@@H]3C)oc2c1 (racemic) [Compound 3.13, (trans)-4-(4-Fluorobenzyl)-1-(6-methyl-benzofuran-2-yl-carbonyl)-2,5-dimethylpiperazine]
15 nM |  |  |  | C[C@@H]1CN(C(=O)c2cc3cc(Cl)c(Cl)cc3[nH]2)[C@@H](C)CN1Cc1ccc(F)cc1 (racemic) [Compound 3.20, (trans)-(5,6-Dichloro-indol-2-yl-carbonyl)-4-(4-fluorobenzyl)-2,5-dimethylpiperazine]
 | 288 min | 43.3 mL/min/kg | 72% | C[C@@H]1CN(C(=O)c2cc3cc(Cl)ccc3o2)[C@@H](C)CN1Cc1ccc(F)cc1 (racemic) [Compound 4.1, (trans)-1-(5-Chloro-benzofuran-2-yl-carbonyl)-4-(4-fluorobenzyl)-2,5-dimethylpiperazine]

Further lines, the compound ahead of its results:

SMILES | IC50 [1] | half-life [2] | clearance [2] | F [2]
COc1cccc2cc(C(=O)N3C[C@@H](C)N(Cc4ccc(F)cc4)C[C@H]3C)oc12 (racemic) [Compound A, (cis)-4-(4-Fluorobenzyl)-1-(7-methoxy-benzofuran-2-yl-carbonyl)-2,5-dimethylpiperazine, reference compound] | > 1000 nM |  |  | 
COc1cccc2cc(C(=O)N3C[C@@H](C)N(Cc4ccc(F)cc4)C[C@@H]3C)oc12 (racemic) [Compound D, (trans)-4-(4-Fluorobenzyl)-1-(7-methoxy-benzofuran-2-yl-carbonyl)-2,5-dimethylpiperazine, reference compound] | > 1000 nM |  |  | 
O=C(c1cc2ccccc2o1)N1CCN(Cc2ccc(Cl)cc2)CC1 [Compound C, 4-(4-chlorobenzyl)-1-(benzofuran-2-yl-carbonyl)-piperazine, reference compound] | > 1000 nM |  |  | 
